What was measured:
Format in all cases: cell-based
A-172 = assay: ATPlite cell IC50 screening, A-172; conditions: Homo sapiens; A-172, Glioblastoma; ATPlite luminescence
Description: (§1) In brief, the cells were cultures in relevant medium and treated with a range of 9 doses of 2-deoxyribitol, from 10 mM, 5 mM, 2.5 mM, 1.25 mM, 0.62 mM, 0.31 mM, 0.08 mM, and 0.04 mM. Cells were diluted in the corresponding ATCC recommended medium and dispensed in a 384-well plate, depending on the cell line used, at a density of 100-6400 cells per well in 45 μl medium. For each used cell line the optimal cell density was used. The margins of the plate were filled with phosphate-buffered saline. Plated cells were incubated in a humidified atmosphere of 5% CO2 at 37° C. After 24 hours, 5 μl of compound dilution was added and plates were further incubated. At the end of experiment (t=end), 24 μl of ATPlite 1Step™ (PerkinElmer) solution was added to each well, and subsequently shaken for 2 minutes. After 10 minutes of incubation in the dark, the luminescence was recorded on an Envision multimode reader (PerkinElmer). IC50 was determined in comparison with the control samples. The cell lines tested and their corresponding disease model is indicated the left-most and middle columns, respectively. IC50 values are given in μM values in the right-most column. This screening was performed of a list of cancer cells to establish IC50 values for each of the cancer cell lines. This screening provides evidence for the potential of 2DR to treat many cancer types.

ACHN = assay: ATPlite cell IC50 screening, ACHN; conditions: Homo sapiens, Papillary renal cell carcinoma, ATPlite luminescence
Description: as §1

BxPC-3 = assay: ATPlite cell IC50 screening, BxPC-3; conditions: Homo sapiens; BxPC-3, Pancreatic ductal adenocarcinoma; ATPlite luminescence
Description: as §1

C-33 A = assay: ATPlite cell IC50 screening, C-33 A; conditions: Homo sapiens, Cervical squamous cell carcinoma, ATPlite luminescence
Description: as §1

COLO 829 = assay: ATPlite cell IC50 screening, COLO 829; conditions: Homo sapiens; COLO 829, Cutaneous melanoma; ATPlite luminescence
Description: as §1

Daoy = assay: ATPlite cell IC50 screening, Daoy; conditions: Homo sapiens, Medulloblastoma, ATPlite luminescence
Description: as §1

DLD-1 = assay: ATPlite cell IC50 screening, DLD-1; conditions: Homo sapiens; DLD-1, Colon adenocarcinoma; ATPlite luminescence
Description: as §1

DU 145 = assay: ATPlite cell IC50 screening, DU 145; conditions: Homo sapiens; DU 145, Prostate carcinoma; ATPlite luminescence
Description: as §1

DU4475 = assay: ATPlite cell IC50 screening, DU4475; conditions: Homo sapiens, DU-4475; DU4475, Breast carcinoma; ATPlite luminescence
Description: as §1

G-361 = assay: ATPlite cell IC50 screening, G-361; conditions: Homo sapiens; G-361, Melanoma; ATPlite luminescence
Description: as §1

HCT 116 = assay: ATPlite cell IC50 screening, HCT 116; conditions: Homo sapiens; HCT 116, Colon carcinoma; ATPlite luminescence
Description: as §1

HT = assay: ATPlite cell IC50 screening, HT; conditions: Homo sapiens, Diffuse large B-cell lymphoma, ATPlite luminescence
Description: as §1

JAR = assay: ATPlite cell IC50 screening, JAR; conditions: Gestational choriocarcinoma, ATPlite luminescence
Description: as §1

KU812 = assay: ATPlite cell IC50 screening, KU812; conditions: Homo sapiens; KU812, Chronic myelogenous leukemia; ATPlite luminescence
Description: as §1

LS 174T = assay: ATPlite cell IC50 screening, LS 174T; conditions: Homo sapiens, LS174T, Colon adenocarcinoma, ATPlite luminescence
Description: as §1

MG-63 = assay: ATPlite cell IC50 screening, MG-63; conditions: Homo sapiens; MG-63, Osteosarcoma; ATPlite luminescence
Description: as §1

MIA PaCa-2 = assay: ATPlite cell IC50 screening, MIA PaCa-2; conditions: Homo sapiens; MIA PaCa-2, Pancreatic ductal adenocarcinoma; ATPlite luminescence
Description: as §1

NCI-H460 = assay: ATPlite cell IC50 screening, NCI-H460; conditions: Homo sapiens; NCI-H460, Large cell lung carcinoma; ATPlite luminescence
Description: as §1

SJCRH30 = assay: ATPlite cell IC50 screening, SJCRH30; conditions: SJCRH30, Alveolar rhabdomyosarcoma; ATPlite luminescence
Description: as §1

SU-DHL-1 = assay: ATPlite cell IC50 screening, SU-DHL-1; conditions: Homo sapiens; SU-DHL-1, Anaplastic large cell lymphoma; ATPlite luminescence
Description: as §1

SU-DHL-6 = assay: ATPlite cell IC50 screening, SU-DHL-6; conditions: Homo sapiens; SU-DHL-6, Diffuse large B-cell lymphoma; ATPlite luminescence
Description: as §1

SW620 = assay: ATPlite cell IC50 screening, SW620; conditions: Homo sapiens, SW-620; SW620, Colon adenocarcinoma; ATPlite luminescence
Description: as §1

SW837 = assay: ATPlite cell IC50 screening, SW837; conditions: Homo sapiens; SW837, Rectal adenocarcinoma; ATPlite luminescence
Description: as §1

SW900 = assay: ATPlite cell IC50 screening, SW900; conditions: Homo sapiens; SW900, Squamous cell lung carcinoma; ATPlite luminescence
Description: as §1

SW948 = assay: ATPlite cell IC50 screening, SW948; conditions: Homo sapiens; SW948, Colon adenocarcinoma; ATPlite luminescence
Description: as §1

THP-1 = assay: ATPlite cell IC50 screening, THP-1; conditions: Homo sapiens; THP-1, Childhood acute monocytic leukemia; ATPlite luminescence
Description: as §1

VA-ES-BJ = assay: ATPlite cell IC50 screening, VA-ES-BJ; conditions: Epithelioid sarcoma, ATPlite luminescence
Description: as §1

[1] = tested on: breast cancer cell line MCF7; assay: MCF7 cell culture, growth and death (FIG. 2); conditions: 3 day treatment
Description: From left-top-to-bottom: Control, 0.4 mM Drug, 2 mM rib, and 10 mM Drug; From right-top-to-bottom: 0.4 mM rib; 2 mM Drug; 10 mM rib; and 50 mM Drug.
However, this effect was not related to the enhanced expression of glycosylation of α-DG.

[2] = tested on: prostate cancer cell line LNCaP; assay: LNCaP cell culture, growth and death (FIG. 5, FIG. 10)
Description: A dose dependent decrease in cell density was clearly detected with 2-deoxyribitol treatment, but not with ribitol treatment.
Less than 50% of cells and 10% of cells were detected with the treatment of 10 mM and 50 mM 2-deoxyribitol, respectively.

`OCC[C@H](O)[C@H](O)CO` [2-deoxyribitol] gave an IC50 (A-172) greater than 10 mM, an IC50 (ACHN) of 3.14 mM and an IC50 (BxPC-3) of 7.81 mM. For the same molecule, the IC50 (C-33 A) was 7.6 mM, the IC50 (COLO 829) was 6.37 mM and the IC50 (Daoy) was 6.24 mM. It also gave an IC50 (DLD-1) of 4.53 mM, an IC50 (DU 145) of 4.87 mM and an IC50 (DU4475) of 5.72 mM. It also gave an IC50 (G-361) greater than 10 mM, an IC50 (HCT 116) of 5.73 mM and an IC50 (HT) of 6.89 mM. For the same molecule, the IC50 (JAR) was 3.6 mM, the IC50 (KU812) was 4.3 mM and the IC50 (LS 174T) was 2.52 mM. The IC50 (MG-63) was 9.27 mM, the IC50 (MIA PaCa-2) was 4.87 mM and the IC50 (NCI-H460) was 3.17 mM. The IC50 (SJCRH30) was 4.46 mM, the IC50 (SU-DHL-1) was 2.65 mM and the IC50 (SU-DHL-6) was 4.06 mM. For the same molecule, the IC50 (SW620) was 5.22 mM, the IC50 (SW837) was 9.79 mM and the IC50 (SW900) was 3.19 mM. For the same molecule, the IC50 (SW948) was 2.53 mM, the IC50 (THP-1) was 5.19 mM and the IC50 (VA-ES-BJ) was 5.28 mM. The “effect on cell growth, death and morphology” value ([1]; MCF7, 0.4-50 mM) was “dose-dependent inhibition in cell growth and increase in cell death”, the “cells survive compared to the control” value ([1]; MCF7, dose of 10 mM or higher) was “about 10%” and the “cells detected after treatment” value ([2]; 10 mM, 4 days) was “Less than 50%”. The “number of cancer cells / anticancer effect” value ([2]; 10 mM, 7 days (FIG. 10)) was “markedly reduces the number of cancer cells”, the “cells detected after treatment” value ([2]; 50 mM, 4 days) was less than 10% and the “effect on cell growth, death and cell density” value ([2]; 2-50 mM, 4 days) was “dose dependent inhibition in cell growth and death”.

Source: patent US12257214B2, “Compositions and methods comprising deoxy-pentitols” (The Charlotte Mecklenburg Hospital Authority, priority 2021, dated 2025)
